Where a name gives a salt, the structure may show the parent alone. Read-outs that look alike come from different tables or passages of the source.
Experiments:
[1] = system: NCI-H292 lung cancer cells; assay: FDA drug screening, complete media vs cholesterol-free media without statin (TABLE 1); assay type: cell-based, human
[2] = system: NCI-H292 lung cancer cells; assay: FDA drug screening, complete media vs cholesterol-free media with simvastatin (TABLE 2); assay type: cell-based, human
[3] = NCI-H292 cells, cholesterol-free media without statin, FDA drug library screen
[4] = NCI-H292 cells, complete media, FDA drug library screen
[5] = complete vs cholesterol-free media, >0 enhanced anti-cancer activity, about 0 neutral, <0 antagonist
[6] = NCI-H292 cells, cholesterol-free media with simvastatin 0.04 μM, cell growth value in FDA drug screen
[7] = NCI-H292 cells, complete media, cell growth value in FDA drug screen
[8] = complete media minus cholesterol-free media + simvastatin, >0 enhanced anti-cancer activity, about 0 neutral, <0 antagonist
[9] = NCI-H292 cells, FDA library drug in cholesterol-free media with simvastatin 0.04 μM
[10] = NCI-H292 cells, FDA library drug in complete media
[11] = complete media vs cholesterol-free media + simvastatin (0.04 μM), >0 enhanced anti-cancer activity, about 0 neutral, <0 antagonist
[12] = Complete minus Cholesterol-free, greater than 0 enhanced anti-cancer activity, about 0 neutral, below 0 antagonists
[13] = NCI-H292 cells in cholesterol-free media without statin
[14] = NCI-H292 cells in complete media
[15] = NCI-H292 cells, FDA drug library screen, cholesterol-free media with simvastatin 0.04 μM
[16] = NCI-H292 cells, FDA drug library screen, complete media
[17] = NCI-H292 cells, cholesterol-free media with simvastatin 0.04 μM, FDA drug library screen (TABLE 2)
[18] = NCI-H292 cells, complete media, FDA drug library screen (TABLE 2)
[19] = complete media minus cholesterol-free media + simvastatin (0.04 μM), >0 enhanced anti-cancer activity, about 0 neutral, <0 antagonist
[20] = Complete minus Cholesterol-free, >0 enhanced anti-cancer activity, about 0 neutral, <0 antagonist
[21] = NCI-H292 cells, cholesterol-free media without statin
[22] = complete vs cholesterol-free media, greater than 0 enhanced anti-cancer activity, about 0 neutral, below 0 antagonists
[23] = NCI-H292 cells, drug in cholesterol-free media with simvastatin 0.04 μM
[24] = NCI-H292 cells, drug in complete media
[25] = Complete minus Cholesterol-free, […]
[26] = complete media minus cholesterol-free media + simvastatin, […]
[27] = complete vs cholesterol-free media, […]

C=C(CC)C(=O)c1ccc(OCC(=O)O)c(Cl)c1Cl [Ethacrynic acid]
Cholesterol-free [1, 3]: 0.8126
Complete [1, 4]: 0.956
Difference [1, 5]: 0.14
Cholesterol-free media + simvastatin (0.04 μM) [2, 6]: 1.155
Complete Media [2, 7]: 1.268
Difference [2, 8]: 0.11

CC[C@@H](CO)NCCN[C@@H](CC)CO [Ethambutol (dihydrochloride)]
Cholesterol-free [1, 3]: 0.4829
Complete [1, 4]: 1.206
Difference [1, 5]: 0.72
Cholesterol-free media + simvastatin (0.04 μM) [2, 9]: 1.428
Complete Media [2, 10]: 1.016
Difference [2, 11]: −0.41

O=S(=O)(O)c1cc(O)ccc1O [Ethamsylate]
Difference [1, 12]: −0.53
Cholesterol-free [1, 13]: 1.652
Complete [1, 14]: 1.118
Cholesterol-free media + simvastatin (0.04 μM) [2, 15]: 1.397
Complete Media [2, 16]: 1.245
Difference [2, 11]: −0.15

CCc1cc(C(N)=S)ccn1 [Ethionamide]
Difference [1, 12]: −0.66
Cholesterol-free [1, 13]: 1.516
Complete [1, 14]: 0.857
Cholesterol-free media + simvastatin (0.04 μM) [2, 17]: 1.611
Complete Media [2, 18]: 1.611
Difference [2, 19]: 0.00

CCC1(C)CC(=O)NC1=O (stereo not drawn) [Ethosuximide]
Difference [1, 20]: −0.24
Cholesterol-free [1, 21]: 1.124
Complete ([1]; NCI-H292 cells, complete media): 0.884
Cholesterol-free media + simvastatin (0.04 μM) [2, 15]: 1.133
Complete Media [2, 16]: 0.9952
Difference [2, 11]: −0.14

CCOc1ccc2nc(S(N)(=O)=O)sc2c1 [Ethoxzolamide]
Cholesterol-free [1, 21]: 1.33
Complete ([1]; NCI-H292 cells, complete media): 0.9909
Difference [1, 22]: −0.34
Cholesterol-free media + simvastatin (0.04 μM) [2, 15]: 1.137
Complete Media [2, 16]: 1.016
Difference [2, 11]: −0.12

CCOC(=O)c1ccc(O)cc1 [Ethylparaben]
Cholesterol-free [1, 3]: 1.065
Complete [1, 4]: 1.563
Difference [1, 5]: 0.50
Cholesterol-free media + simvastatin (0.04 μM) [2, 15]: 1.326
Complete Media [2, 16]: 1.517
Difference [2, 8]: 0.19

C#C[C@]1(OC(C)=O)CC[C@H]2[C@@H]3CCC4=C[C@@H](OC(C)=O)CC[C@@H]4[C@H]3CC[C@@]21C [Ethynodiol diacetate]
Difference [1, 12]: −0.50
Cholesterol-free [1, 13]: 1.654
Complete [1, 14]: 1.155
Cholesterol-free media + simvastatin (0.04 μM) [2, 9]: 1.26
Complete Media [2, 10]: 0.9323
Difference [2, 11]: −0.33

C#C[C@]1(O)CC[C@H]2[C@@H]3CCc4cc(O)ccc4[C@H]3CC[C@@]21C [Ethynyl Estradiol]
Cholesterol-free [1, 3]: 0.8735
Complete [1, 4]: 1.393
Difference [1, 5]: 0.52
Cholesterol-free media + simvastatin (0.04 μM) [2, 23]: 1.254
Complete Media [2, 24]: 1.055
Difference [2, 11]: −0.20

CC(O)(P(=O)(O)O)P(=O)(O)O [Etidronic acid]
Cholesterol-free [1, 21]: 1.196
Complete ([1]; NCI-H292 cells, complete media): 0.8527
Difference [1, 22]: −0.34
Cholesterol-free media + simvastatin (0.04 μM) [2, 17]: 0.8968
Complete Media [2, 18]: 0.9014
Difference [2, 19]: 0.00

CCc1cccc2c3c([nH]c12)C(CC)(CC(=O)O)OCC3 (stereo not drawn) [Etodolac]
Cholesterol-free [1, 21]: 1.251
Complete ([1]; NCI-H292 cells, complete media): 0.9193
Difference [1, 22]: −0.33
Cholesterol-free media + simvastatin (0.04 μM) [2, 15]: 0.9939
Complete Media [2, 16]: 1.145
Difference [2, 8]: 0.15

O=C(OCCOCCO)c1ccccc1Nc1cccc(C(F)(F)F)c1 [Etofenamate]
Difference [1, 20]: 0.02
Cholesterol-free [1, 3]: 1.014
Complete [1, 4]: 1.036
Cholesterol-free media + simvastatin (0.04 μM) [2, 9]: 2.387
Complete Media [2, 10]: 1.527
Difference [2, 11]: −0.86

Cn1c(=O)c2c(ncn2CCO)n(C)c1=O [Etofylline]
Cholesterol-free [1, 3]: 1.261
Complete [1, 4]: 1.355
Difference [1, 5]: 0.09
Cholesterol-free media + simvastatin (0.04 μM) [2, 15]: 0.885
Complete Media [2, 16]: 1.042
Difference [2, 8]: 0.16

CCOC(=O)c1cncn1[C@H](C)c1ccccc1 [Etomidate (hydrochloride)]
Difference [1, 25]: −0.60
Cholesterol-free [1, 13]: 1.469
Complete [1, 14]: 0.8733
Cholesterol-free media + simvastatin (0.04 μM) [2, 15]: 0.8714
Complete Media [2, 16]: 1.097
Difference [2, 26]: 0.23

CCOC(=O)c1cncn1[C@H](C)c1ccccc1 [Etomidate]
Cholesterol-free [1, 21]: 1.122
Complete ([1]; NCI-H292 cells, complete media): 0.7993
Difference [1, 27]: −0.32
Cholesterol-free media + simvastatin (0.04 μM) [2, 15]: 0.9001
Complete Media [2, 16]: 1.134
Difference [2, 26]: 0.23

COc1cc([C@@H]2c3cc4c(cc3[C@@H](O[C@@H]3O[C@@H]5CO[C@@H](C)O[C@H]5[C@H](O)[C@H]3O)[C@H]3COC(=O)[C@H]23)OCO4)cc(OC)c1OP(=O)(O)O [Etoposide phosphate]
Difference ([1]; Complete minus Cholesterol-free, greater than 0 enhanced anti-cancer activity, about 0 neutral, below 0 antagonist): −0.10
Cholesterol-free ([1]; NCI-H292 cells, FDA drug library screen, cholesterol-free media without statin): 0.7876
Complete [1, 16]: 0.6917
Cholesterol-free media + simvastatin (0.04 μM) [2, 23]: 0.9468
Complete Media [2, 24]: 0.7461
Difference [2, 11]: −0.20

COc1cc([C@@H]2c3cc4c(cc3[C@@H](O[C@@H]3O[C@@H]5CO[C@@H](C)O[C@H]5[C@H](O)[C@H]3O)[C@H]3COC(=O)[C@H]23)OCO4)cc(OC)c1O [Etoposide]
Difference [1, 20]: −0.29
Cholesterol-free [1, 21]: 0.7069
Complete ([1]; NCI-H292 cells, complete media): 0.4154
Cholesterol-free media + simvastatin (0.04 μM) [2, 23]: 0.718
Complete Media [2, 24]: 0.5014
Difference [2, 11]: −0.22

Cc1ccc(-c2ncc(Cl)cc2-c2ccc(S(C)(=O)=O)cc2)cn1 [Etoricoxib]
Cholesterol-free [1, 3]: 1.045
Complete [1, 4]: 1.321
Difference [1, 5]: 0.28
Cholesterol-free media + simvastatin (0.04 μM) [2, 17]: 1.501
Complete Media [2, 18]: 1.49
Difference [2, 19]: −0.01

Cc1cc(C#N)cc(C)c1Oc1nc(Nc2ccc(C#N)cc2)nc(N)c1Br [Etravirine]
Difference [1, 12]: −0.49
Cholesterol-free [1, 13]: 1.424
Complete [1, 14]: 0.9362
Cholesterol-free media + simvastatin (0.04 μM) [2, 17]: 0.8346
Complete Media [2, 18]: 0.8071
Difference [2, 19]: −0.03

CCOC(=O)/C=C(C)/C=C/C=C(C)/C=C/c1c(C)cc(OC)c(C)c1C [Etretinate]
Difference [1, 25]: −0.71
Cholesterol-free [1, 13]: 1.459
Complete [1, 14]: 0.7469
Cholesterol-free media + simvastatin (0.04 μM) [2, 15]: 0.824
Complete Media [2, 16]: 1.055
Difference [2, 26]: 0.23

COC(=O)c1cccc(CCN(C)CCC[C@@](C#N)(c2ccc(OC)c(OC)c2)C(C)C)c1 [Etripamil]
Cholesterol-free [1, 21]: 1.343
Complete ([1]; NCI-H292 cells, complete media): 0.9721
Difference [1, 27]: −0.37
Cholesterol-free media + simvastatin (0.04 μM) ([2]; NCI-H292 cells, cholesterol-free media with simvastatin 0.04 μM, […]): 0.8109
Complete Media ([2]; NCI-H292 cells, complete media, […]): 0.8724
Difference [2, 26]: 0.06

C=CCc1ccc(O)c(OC)c1 [Eugenol]
Cholesterol-free [1, 21]: 1.418
Complete ([1]; NCI-H292 cells, complete media): 1.048
Difference [1, 22]: −0.37
Cholesterol-free media + simvastatin (0.04 μM) [2, 15]: 0.8347
Complete Media [2, 16]: 1.009
Difference [2, 8]: 0.17

Cc1cc(-c2ccc(/N=N/c3ccc4c(S(=O)(=O)O)cc(S(=O)(=O)O)c(N)c4c3O)c(C)c2)ccc1/N=N/c1ccc2c(S(=O)(=O)O)cc(S(=O)(=O)O)c(N)c2c1O [Evans Blue]
Difference [1, 20]: −0.05
Cholesterol-free [1, 3]: 1.165
Complete [1, 4]: 1.11
Cholesterol-free media + simvastatin (0.04 μM) [2, 23]: 1.142
Complete Media [2, 24]: 0.9534
Difference [2, 11]: −0.19

CO[C@H]1C[C@@H]2CC[C@@H](C)[C@@](O)(O2)C(=O)C(=O)N2CCCC[C@H]2C(=O)O[C@H]([C@H](C)C[C@@H]2CC[C@@H](OCCO)[C@H](OC)C2)CC(=O)[C@H](C)/C=C(\C)[C@@H](O)[C@@H](OC)C(=O)[C@H](C)C[C@H](C)/C=C/C=C/C=C/1C [Everolimus]
Difference [1, 20]: −0.23
Cholesterol-free [1, 21]: 0.8236
Complete ([1]; NCI-H292 cells, complete media): 0.5968
Cholesterol-free media + simvastatin (0.04 μM) [2, 17]: 0.3946
Complete Media [2, 18]: 0.373
Difference [2, 19]: −0.02

C=C1C[C@@H]2[C@H](CC[C@]3(C)C(=O)CC[C@@H]23)[C@@]2(C)C=CC(=O)C=C12 [Exemestane]
Difference [1, 20]: −0.01
Cholesterol-free [1, 3]: 1.056
Complete [1, 4]: 1.048
Cholesterol-free media + simvastatin (0.04 μM) [2, 9]: 1.215
Complete Media [2, 10]: 0.9053
Difference [2, 11]: −0.31

O=C1[C@H](CC[C@H](O)c2ccc(F)cc2)[C@@H](c2ccc(O)cc2)N1c1ccc(F)cc1 [Ezetimibe]
Difference [1, 12]: −0.66
Cholesterol-free [1, 13]: 1.871
Complete [1, 14]: 1.209
Cholesterol-free media + simvastatin (0.04 μM) [2, 6]: 1.247
Complete Media [2, 7]: 1.268
Difference [2, 8]: 0.02

CCOc1ccc2nc(SCCN3CCOCC3)[nH]c2c1 [Fabomotizole (hydrochloride)]
Cholesterol-free [1, 21]: 1.463
Complete ([1]; NCI-H292 cells, complete media): 1.068
Difference [1, 22]: −0.39
Cholesterol-free media + simvastatin (0.04 μM) [2, 23]: 1.167
Complete Media [2, 24]: 0.9459
Difference [2, 11]: −0.22

N#Cc1ccc(C2CCCc3cncn32)cc1 (stereo not drawn) [Fadrozole hydrochloride]
Cholesterol-free [1]: 1.643
Complete [1]: 1.101
Difference [1]: −0.54
Cholesterol-free media + simvastatin (0.04 μM) [2]: 0.9854
Complete Media [2]: 0.9477
Difference [2]: −0.04

— patent US20250144067A1, “PERSONALIZED STARVATION THERAPY FOR CANCER” (Faeth Therapeutics, Inc., priority 2021, published 2025)
